Assay results taken from patent US20140343104A1, “OSTEOGENESIS PROMOTER AND USE THEREOF” (National University Corporation Nagoya University, priority 2011, published 2014).

Columns and labels:
[1] = test system: P1 promoter region of the human Runx2 gene; test: RUNX2 P1 promoter luciferase reporter assay in BMP-2-induced C3H10T1/2 stable expression strain (primary, secondary, tertiary screening); type: cell-based; conditions: five times of screening (N=6/time); average of 5 times or even at once
Source text: Existing drugs which increase the promoter activity of the transcription factor Runx2 were exhaustively searched by luciferase assay. Firstly, the P1 promoter region of the human Runx2 gene was inserted into the multiple cloning site of the pGL4 luciferase reporter vector (Promega K.K.) (pGL4.10 vector). The pGL4.10 vector was transfected into the undifferentiated mouse mesenchymal cell line C3H10T1/2, and selectively cultured on a G418-containing medium, thereby establishing the stable expression strain. The cells were seeded on a 96-well (day 1), and human BMP-2 was added to each well on day 2, thereby inducing differentiation into osteoblasts. On the following day, the test compounds (10 μM) composing Prestwick Chemical Library (registered trademark) (Prestwick Chemical Ltd.) were added, and the cells were collected 24 hours after, and subjected to luciferase assay.
In addition to the compounds which made the reporter activity of luciferase (average of 5 times) 1.5 times that of the control, those made the activity 1.5 times than that of the control even at once were selected.

[2] = test system: P1 promoter region of the human Runx2 gene; test: as above; type: cell-based; conditions: three times of screening (N=6/time) at 8 levels of concentration
luciferase protein = test: double luciferase assay, pGL4.10 basic vector and phRL vector cotransfected into C3H10T1/2 cells; type: cell-based; conditions: pGL4.10 [luc2/SV40] basic vector and phRL [hRluc/TK] vector
Description: In order to exclude the possibility of the potential agent to increase the enzymatic activity of luciferase protein, the pGL4. 10 basic vector (pGL4.10 [luc2/SV40] basic vector) and phRLvector (phRL [hRluc/TK] vector) were cotransfected into the C3H10T1/2 cells, the potential agents were individually added, and double luciferase assay was performed.

Runx2 protein [3] = test: Runx2 protein expression by Western blot in BMP-2-induced C3H10T1/2 cells; type: cell-based, mouse; conditions: C3H10T1/2 cells differentiated by BMP-2; 48 hours and 78 hours after the addition of PPI; relative to Gapdh; FIGS. 5 and 6
Description: (§1) Human osteogenic sarcoma cells (HOSs) and the C3H10T1/2 cells were used in the experiment. Firstly, the cells (HOS or C3H10T1/2) were seeded on a 12-well plate (day 1). When the C3H10T1/2 cells were used, the human BMP-2 was added to each well on the following day. On day 3, PPI (rabeprazole or lansoprazole) was added and cultured for 24 hours, and the cells were collected. Total RNAs were prepared from the collected cells, and the expression of the Runx2 gene was analyzed by the quantitative PCR method.
(§2) Using the HOS cells and the C3H10T1/2 cells cultured in the same manner as in 4-1, and the expression level of the Runx2 protein and the ALP activity which is the index of bone differentiation were evaluated over time. The expression level of the Runx2 protein was evaluated by the Western blot test, and the ALP activity was measured by the ELISA method.

Runx2 gene [4] = test: Runx2 gene expression by quantitative PCR in BMP-2-induced C3H10T1/2 cells; type: cell-based, mouse; conditions: C3H10T1/2 cells differentiated by BMP-2; PPI cultured for 24 hours; FIG. 2
Description: as §1

Runx2 gene [5] = test: Runx2 gene expression by quantitative PCR in HOS cells; type: cell-based, human; conditions: PPI cultured for 24 hours, FIG. 1
Description: as §1

[6] = test system: alkaline phosphatase (ALP) activity; test: ALP activity by ELISA in BMP-2-induced C3H10T1/2 cells; type: cell-based, mouse; conditions: day 5 after the addition of PPI, FIG. 8
Description: as §1, §2

[7] = test system: alkaline phosphatase (ALP) activity; test: ALP activity by ELISA in HOS cells; type: cell-based, human; conditions: day 6 after the addition of PPI, FIG. 7
Description: as §1, §2

Runx2 gene [8] = test: Runx2 gene expression in human bone marrow mesenchymal stem cells; type: cell-based; conditions: PPI-containing bone-inducing media, P0, P1, P2, FIG. 10
Description: On the other hand, the human bone marrow mesenchymal stem cells (POIETICS (registered trademark), Lonza Ltd.) were subjected to primary culture (P0) and subcultivation (P1, P2) in the PPI-containing bone-inducing media (culture media containing PPI, dexamethasone, β-glycerophosphoric acid, and ascorbic acid). The bone-inducing medium was replaced every three days. The cells were collected when each of P0, P1, and P2 reached confluent, and the expression of the Runx2 gene was analyzed in the same manner as in 4-1.

Runx2 protein [9] = test: Runx2 protein expression by Western blot in HOS cells; type: cell-based, human; conditions: 48 hours and 78 hours after the addition of PPI, relative to Gapdh, FIGS. 3 and 4
Description: as §1, §2

Runx2 gene [10] = test: Runx2 gene expression in rat cultured bone marrow mesenchymal cells; type: cell-based; conditions: bone-inducing media, P1, P2, P3, 24 hours after the addition of PPI, FIG. 9
Description: Mesenchymal cells were prepared from a rat bone marrow solution, and cultured (cultured bone marrow mesenchymal cells). Subsequently, the cells were subcultivated (P1, P2, and P3) in bone-inducing media (dexamethasone, β-glycerophosphoric acid, and ascorbic acid were added the culture media). PPI was added when each of the P1, P2, and P3 reached confluent. The cells were collected 24 hours after the addition of PPI, and the expression of the Runx2 gene was analyzed in the same manner as in 4-1.

rat femur defect model = test: rat femur defect model, soft X-ray; type: in vivo; conditions: SD rat femur 3 mm defect, ad libitum oral administration
Source text: The left hind femur of an SD rat (male, 9 weeks old) was exposed by anterolateral approach, and an external fixator was installed. The diaphysis was cut by an oscillating saw, (defect amount 3 mm), and the bone was elongated in a single stage, and used as a bone defect model (defect group N=6, control group N=6). Lansoprazole was given to the bone defect model by ad libitum oral administration (about 10 to 20 times the usual human dose), and the bone defect part was photographed periodically by soft X-ray. In addition, the body weight and drinking water amount were periodically measured.

SMILES | secondary screening: reporter activity of luciferase 1.5 times that of the control [1] | tertiary screening: concentration dependency of the promotion of RUNX2 promoter activity [2] | specificity of RUNX2 promoter promotion versus increase of luciferase activity (luciferase protein) | further results
O=C(O)CCNC(=O)c1ccc(/N=N/c2ccc(O)c(C(=O)O)c2)cc1 [balsalazide sodium, disodium (3Z)-3-[[4-(2-carboxylatoethylcarbamoyl)phenyl]hydrazinylidene]-6-oxocyclohexa-1,4-diene-1-carboxylate dehydrate] | selected | – | – | –
Cc1oncc1C(=O)Nc1ccc(C(F)(F)F)cc1 [leflunomide, 5-methyl-N-[4-(trifluoromethyl)phenyl]-1,2-oxazole-4-carboxamide] | selected | concentration dependency | specifically promote the RUNX2 promoter activity | –
CC(C(=O)O)c1ccc(C(=O)c2ccccc2)s1 (stereo not shown) [tiaprofenic acid, 2-(5-benzoylthiophen-2-yl)propanoic acid] | selected | concentration dependency | specifically promote the RUNX2 promoter activity | –
Cc1c(OCC(F)(F)F)ccnc1C[S+]([O-])c1nc2ccccc2[nH]1 (stereo not shown) [lansoprazole, 2-[[3-methyl-4-(2,2,2-trifluoroethoxy)pyridin-2-yl]methylsulfinyl]-1H-benzimidazole] | selected | concentration dependency | specifically promote the RUNX2 promoter activity | Runx2 protein expression level (Runx2 protein [3]): expression inducing effect; induction of expression of the Runx2 gene (Runx2 gene [4]): concentration-dependent activity of inducing the expression of the Runx2 gene; induction of expression of the Runx2 gene (Runx2 gene [5]): concentration-dependent activity of inducing the expression of the Runx2 gene; ALP activity [6]: increase effect; ALP activity [7]: increase effect; induction of the expression of the Runx2 gene (Runx2 gene [8]): expression inducing effect; Runx2 protein expression level (Runx2 protein [9]): expression inducing effect; induction of the expression of the Runx2 gene (Runx2 gene [10]): expression inducing effect; osteogenesis promoting effect (rat femur defect model): marked osteogenesis promoting effect; animals showing good osteogenesis (bone adhesion on soft X-ray) (rat femur defect model; about 10 to 20 times the usual human dose, 12 weeks, N=6): 3/6
COC(=O)Nc1nc2ccc(SC(C)C)cc2[nH]1 [methiazole, methyl n-(6-propan-2-ylsulfanyl-1H-benzimidazol-2-yl) carbamate] | selected | – | – | –
Cl.Nc1ccc(N=Nc2ccccc2)c(N)n1 [phenazopyridine hydrochloride, 3-phenyldiazenylpyridine-2,6-diamine hydrochloride] | selected | – | – | –
COCCCOc1ccnc(C[S+]([O-])c2nc3ccccc3[nH]2)c1C (stereo not shown) [rabeprazole, 2-[[4-(3-methoxypropoxy)-3-methylpyridin-2-yl]methylsulfinyl]-1H-benzimidazole] | selected | concentration dependency | specifically promote the RUNX2 promoter activity | Runx2 protein expression level (Runx2 protein [3]): expression inducing effect; induction of expression of the Runx2 gene (Runx2 gene [4]): concentration-dependent activity of inducing the expression of the Runx2 gene; induction of expression of the Runx2 gene (Runx2 gene [5]): concentration-dependent activity of inducing the expression of the Runx2 gene; ALP activity [6]: increase effect; ALP activity [7]: increase effect; induction of the expression of the Runx2 gene (Runx2 gene [8]): expression inducing effect; Runx2 protein expression level (Runx2 protein [9]): expression inducing effect; induction of the expression of the Runx2 gene (Runx2 gene [10]): expression inducing effect
CC(C(=O)O)c1ccc(N2Cc3ccccc3C2=O)cc1 (stereo not shown) [indoprofen, 2-[4-(3-oxo-1H-isoindol-2-yl)phenyl]propanoic acid] | selected | – | – | –
CCCSc1ccc2nc(NC(=O)OC)[nH]c2c1 [albendazole, methyl n-(6-propylsulfanyl-1H-benzimidazol-2-yl) carbamate] | selected | – | – | –
COc1ccc(/C=C/C(=O)Nc2ccccc2C(=O)O)cc1OC [tranilast, 2-[[(E)-3-(3,4-dimethoxyphenyl)prop-2-enoyl]amino]benzoic acid] | selected | concentration dependency | slightly increase the luciferase activity | –
O=c1cc(-c2ccc(O)c(O)c2)oc2cc(O)cc(O)c12 [luteolin, 2-(3,4-dihydroxyphenyl)-5,7-dihydroxychromen-4-one] | selected | – | – | –
c1ccc2[nH]c(-c3cscn3)nc2c1 [tiabendazole, 4-(1H-benzimidazol-2-yl)-1,3-thiazole] | selected | – | – | –
COc1ccc2cc(CCC(C)=O)ccc2c1 [nabumetone, 4-(6-methoxynaphthalen-2-yl)butan-2-one] | selected | concentration dependency | specifically promote the RUNX2 promoter activity | –
